Patent publication US10258603B2 (priority 2014, dated 2019)

These compounds were tested against T1, CECR2 (Homo sapiens, UniProt Q9BXF3) (assay: CECR2 TR-FRET Binding Assay). Details: IC50 (uM).
T1 construct: 424-538 was cloned, expressed, and purified to homogeneity; Flag; made in house
Excerpt: IC50 Measurements for Inhibitors Using CECR2 TR-FRET Binding Assay

T1 sequence (Q9BXF3 424-538 limits assumed): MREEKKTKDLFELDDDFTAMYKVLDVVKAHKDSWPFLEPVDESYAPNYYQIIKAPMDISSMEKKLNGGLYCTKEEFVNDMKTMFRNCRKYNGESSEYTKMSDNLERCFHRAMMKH

Row | Compound | IC50
1 | C=CCn1cc(C(=O)N(C)C2CCN(c3cc(-n4cccn4)ncn3)CC2)c2cc[nH]c2c1=O [Example 170, 6-allyl-N-methyl-7-oxo-N-[1-(6-pyrazol-1-ylpyrimidin-4-yl)-4-piperidyl]-1H-pyrrolo[2,3-c]pyridine-4-carboxamide] | 0.042 µM
2 | CC(C)N1CCC(N(C)C(=O)c2cn(C)c(=O)c3[nH]ccc23)CC1 [Example 41, N-(1-isopropyl-4-piperidyl)-N,6-dimethyl-7-oxo-1H-pyrrolo[2,3-c]pyridine-4-carboxamide] | 0.77 µM

Same assay, conditions: read-out: IC50

Row | Compound | IC50
3 | C=CCn1cc(C(=O)N(C)C2CCN(c3cc(C)nc(C4CC4)n3)CC2)c2cc(C)[nH]c2c1=O [Example 267, 6-allyl-N-(1-(2-cyclopropyl-6-methylpyrimidin-4-yl)piperidin-4-yl)-N,2-dimethyl-7-oxo-6,7-dihydro-1H-pyrrolo[2,3-c]pyridine-4-carboxamide] | 0.017 µM
4 | C=CCn1cc(C(=O)N(C)[C@H]2[C@@H]3CN(c4ccnc(C#N)n4)C[C@@H]32)c2cc[nH]c2c1=O [Example 249, 6-allyl-N-[(1S,5R)-3-(2-cyanopyrimidin-4-yl)-3-azabicyclo[3.1.0]hexan-6-yl]-N-methyl-7-oxo-1H-pyrrolo[2,3-c]pyridine-4-carboxamide] | 4.8 µM
5 | C=CCn1cc(C(=O)N(C)C2CCN(c3cncc(-n4cccn4)n3)CC2)c2cc[nH]c2c1=O [Example 169, 6-allyl-N-methyl-7-oxo-N-[1-(6-pyrazol-1-ylpyrazin-2-yl)-4-piperidyl]-1H-pyrrolo[2,3-c]pyridine-4-carboxamide] | 0.023 µM
6 | CN(C(=O)c1cn(C)c(=O)c2[nH]ccc12)C1CCN(c2ccc(C(F)(F)F)cc2)CC1 [Example 175, N,6-dimethyl-7-oxo-N-[1-[4-(trifluoromethyl)phenyl]-4-piperidyl]-1H-pyrrolo[2,3-c]pyridine-4-carboxamide] | 0.76 µM
7 | C=CCn1cc(C(=O)N(C)C2CCN(c3ccnc(C#N)n3)CC2)c2cc[nH]c2c1=O [Example 160, 6-allyl-N-[1-(2-cyanopyrimidin-4-yl)-4-piperidyl]-N-methyl-7-oxo-1H-pyrrolo[2,3-c]pyridine-4-carboxamide] | 0.18 µM
8 | CN(C(=O)c1cn(C)c(=O)c2[nH]ccc12)C1CCN(Cc2cccc(Cl)c2)CC1 [Example 224] | 0.78 µM
9 | C=CCn1cc(C(=O)N(C)C2CCN(c3ncnc4c3CCC4)CC2)c2cc[nH]c2c1=O [Example 163, 6-allyl-N-[1-(6,7-dihydro-5H-cyclopenta[d]pyrimidin-4-yl)-4-piperidyl]-N-methyl-7-oxo-1H-pyrrolo[2,3-c]pyridine-4-carboxamide] | 0.091 µM
10 | Cc1cccc(CN2CCC(CN(C)C(=O)c3cn(C)c(=O)c4[nH]ccc34)CC2)c1 [Example 204] | 1.1 µM
11 | CN(CC1CCN(CC2CCCCC2)CC1)C(=O)c1cn(C)c(=O)c2[nH]ccc12 [Example 206] | 0.37 µM
12 | C=CCn1cc(C(=O)N(C)C2CCN(c3cc(-c4cccnc4C)ncn3)CC2)c2cc(C)[nH]c2c1=O [Example 268, 6-allyl-N,2-dimethyl-N-[1-[6-(2-methyl-3-pyridyl)pyrimidin-4-yl]-4-piperidyl]-7-oxo-1H-pyrrolo[2,3-c]pyridine-4-carboxamide] | 0.023 µM
13 | COCCCN1CCC(CN(C)C(=O)c2cn(C)c(=O)c3[nH]ccc23)CC1 [Example 232] | 1.2 µM
14 | C=CCn1cc(C(=O)N(C)C2CCC(C)(C)c3ccccc32)c2cc(C)[nH]c2c1=O (single isomer, unassigned) [Example 280] | 0.049 µM
15 | CC(C)N1CC[C@@H](NC(=O)c2cn(C)c(=O)c3[nH]ccc23)[C@H](C)C1 (relative stereo) [Example 239] | 2.3 µM
16 | C=CCn1cc(C(=O)N(C)C2CCCc3ccccc32)c2cc(C)[nH]c2c1=O (stereo not shown) [Example 275, 6-allyl-N,2-dimethyl-7-oxo-N-tetralin-1-yl-1H-pyrrolo[2,3-c]pyridine-4-carboxamide] | 0.11 µM
17 | C=CCn1cc(C(=O)N(C)C2CCCc3ncccc32)c2cc(C)[nH]c2c1=O (stereo not shown) [Example 276] | 0.038 µM
18 | CC1CCN(CCNC(=O)c2cn(C)c(=O)c3[nH]ccc23)CC1 [Example 26, 6-methyl-N-[2-(4-methyl-1-piperidyl)ethyl]-7-oxo-1H-pyrrolo[2,3-c]pyridine-4-carboxamide] | 3.2 µM

Row | Compound | IC50
19 | CCN1CCC(CCN(C)C(=O)c2cn(C)c(=O)c3[nH]ccc23)CC1 [Example 182] | 0.41 µM
20 | C=CCn1cc(C(=O)N(C)C2CCOc3ccccc32)c2cc(C)[nH]c2c1=O (stereo not shown) [Example 277] | 0.053 µM
21 | Cn1cc(C(=O)NCCN2CCS(=O)(=O)CC2)c2cc[nH]c2c1=O [Example 37, N-[2-(1,1-dioxo-1,4-thiazinan-4-yl)ethyl]-6-methyl-7-oxo-1H-pyrrolo[2,3-c]pyridine-4-carboxamide] | 3.1 µM
22 | CN(CC1CCN(Cc2cccc(F)c2)CC1)C(=O)c1cn(C)c(=O)c2[nH]ccc12 [Example 202] | 1.3 µM
23 | CN(CC1CCN(CC2CCOCC2)CC1)C(=O)c1cn(C)c(=O)c2[nH]ccc12 [Example 234] | 1 µM
24 | CN(CCC1CCN(C2CCC2)CC1)C(=O)c1cn(C)c(=O)c2[nH]ccc12 [Example 184] | 0.47 µM
25 | CCN1CCC(CN(C)C(=O)c2cn(C)c(=O)c3[nH]ccc23)CC1 [Example 191] | 0.59 µM
26 | COCC1CCN(C(=O)c2cn(C)c(=O)c3[nH]ccc23)CC1 [Example 72, 4-[4-(methoxymethyl)piperidine-1-carbonyl]-6-methyl-1H-pyrrolo[2,3-c]pyridin-7-one] | 2.2 µM
27 | Cn1cc(C(=O)N2CCC3(CC2)COC3)c2cc[nH]c2c1=O [Example 73, 6-methyl-4-(2-oxa-7-azaspiro[3.5]nonane-7-carbonyl)-1H-pyrrolo[2,3-c]pyridin-7-one] | 2.5 µM
28 | CN(CC1CCN(CCC2CCCCC2)CC1)C(=O)c1cn(C)c(=O)c2[nH]ccc12 [Example 229] | 0.64 µM
29 | CN1CCC(C)(CNC(=O)c2cn(C)c(=O)c3[nH]ccc23)CC1 [Example 211, N-[(1,4-dimethyl-4-piperidyl)methyl]-6-methyl-7-oxo-1H-pyrrolo[2,3-c]pyridine-4-carboxamide] | 2.2 µM
30 | Cc1ccnc(N2CCC(N(C)C(=O)c3cn(C)c(=O)c4[nH]ccc34)CC2)n1 [Example 144, N,6-dimethyl-N-[1-(4-methylpyrimidin-2-yl)-4-piperidyl]-7-oxo-1H-pyrrolo[2,3-c]pyridine-4-carboxamide] | 0.43 µM
31 | CCc1cccc(N2CCC(N(C)C(=O)c3cn(C)c(=O)c4[nH]ccc34)CC2)c1 [Example 177, N-[1-(3-ethylphenyl)-4-piperidyl]-N,6-dimethyl-7-oxo-1H-pyrrolo[2,3-c]pyridine-4-carboxamide] | 0.69 µM
32 | C=CCn1cc(C(=O)N(C)C2CCN(c3cc(C(C)C)ncn3)CC2)c2cc[nH]c2c1=O [Example 167, 6-allyl-N-[1-(6-isopropylpyrimidin-4-yl)-4-piperidyl]-N-methyl-7-oxo-1H-pyrrolo[2,3-c]pyridine-4-carboxamide] | 0.12 µM
33 | CN(CC1CCN(Cc2ccccc2F)CC1)C(=O)c1cn(C)c(=O)c2[nH]ccc12 [Example 201] | 0.99 µM
34 | C=CCn1cc(C(=O)N2CCN(c3ccc(F)cc3)CC2C(N)=O)c2cc(C)[nH]c2c1=O (single isomer, unassigned) [Example 274, 1-(6-allyl-2-methyl-7-oxo-6,7-dihydro-1H-pyrrolo[2,3-c]pyridine-4-carbonyl)-4-(4-fluorophenyl)piperazine-2-carboxamide] | 0.074 µM
